Each structure is given as a SMILES string. Like-named read-outs stand apart in the source and are kept apart here. Some results are limits rather than exact numbers.

The test system of experiment [1] is tumor necrosis factor (α) (TNF-α). Nature of the experiment: Cytokine induction in human cells: TNF-α secreted by PBMC into culture media (ORIGEN M-Series immunoassay). Type of experiment: cell-based. Also noted: key to Maximal Response (pg/mL) TNF / Maximal Response TNF: If any negative values result from background subtraction, the reading is reported as “*”, and is noted as not reliably detectable. The settings on record: for Maximal Response TNF / Minimum Effective Concentration TNF / minimal effective concentration: human PBMC; for Maximal Response TNF / Maximal Response (pg/mL) TNF: median; for Minimum Effective Concentration TNF: median where tested in more than one experiment; for minimal effective concentration: lowest tested concentration inducing TNF-α over usually 40 pg/mL, median where more than one experiment, read-out: Minimum Effective Concentration (μM) TNF; for Maximal Response (pg/mL) TNF: maximal response in dose response curve. The text has this: (§1) Cytokine Induction in Human Cells
(§2) An in vitro human blood cell system is used to assess cytokine induction. Activity is based on the measurement of interferon (α) and tumor necrosis factor (α) (IFN-α and TNF-α, respectively) secreted into culture media as described by Testerman et. al. in “Cytokine Induction by the Immunomodulators Imiquimod and S-27609”, Journal of Leukocyte Biology, 58, 365-372 (September, 1995).
(§3) Blood Cell Preparation for Culture
(§4) Whole blood from healthy human donors is collected by venipuncture into vacutainer tubes or syringes containing EDTA. Peripheral blood mononuclear cells (PBMC) are separated from whole blood by density gradient centrifugation using HISTOPAQUE-1077 (Sigma, St. Louis, Mo.) or Ficoll-Paque Plus (Amersham Biosciences Piscataway, N.J.). Blood is diluted 1:1 with Dulbecco's Phosphate Buffered Saline (DPBS) or Hank's Balanced Salts Solution (HBSS). Alternately, whole blood is placed in Accuspin (Sigma) or LeucoSep (Oreiner Bio-One, Inc., Longwood, Fla.) centrifuge frit tubes containing density gradient medium. The PBMC layer is collected and washed twice with DPBS or HBSS and re-suspended at 4×10^6 cells/mL in RPMI complete. The PBMC suspension is added to 96 well flat bottom sterile tissue culture plates containing an equal volume of RPMI complete media containing test compound.
(§5) The compounds are solubilized in dimethyl sulfoxide (DMSO). The DMSO concentration should not exceed a final concentration of 1% for addition to the culture wells. The compounds are generally tested at concentrations ranging from 30-0.014 μM. Controls include cell samples with media only, cell samples with DMSO only (no compound), and cell samples with reference compound.
(§6) The solution of test compound is added at 60 μM to the first well containing RPMI complete and serial 3 fold dilutions are made in the wells. The PBMC suspension is then added to the wells in an equal volume, bringing the test compound concentrations to the desired range (usually 30-0.014 μM). The final concentration of PBMC suspension is 2×10^6 cells/mL. The plates are covered with sterile plastic lids, mixed gently and then incubated for 18 to 24 hours at 37° C. in a 5% carbon dioxide atmosphere.
(§7) Following incubation the plates are centrifuged for 10 minutes at 1000 rpm (approximately 200×g) at 4° C. The cell-free culture supernatant is removed and transferred to sterile polypropylene tubes. Samples are maintained at −30 to −70° C. until analysis. The samples are analyzed for IFN-α by ELISA and for TNF-α by IGEN/BioVeris Assay.
(§8) Interferon (α) and Tumor Necrosis Factor (α) Analysis
The TNF-α concentration is determined by ORIGEN M-Series Immunoassay and read on an IGEN M-8 analyzer from BioVeris Corporation, formerly known as IGEN International, Gaithersburg, Md. The immunoassay uses a human TNF-α capture and detection antibody pair (Catalog Numbers AHC3419 and AHC3712) from Biosource International, Camarillo, Calif. Results are expressed in pg/mL.
(§9) In total, the data output of the assay consists of concentration values of TNF-α and IFN-α (y-axis) as a function of compound concentration (x-axis).
Analysis of the data has two steps. First, the greater of the mean DMSO (DMSO control wells) or the experimental background (usually 20 pg/mL for IFN-α and 40 pg/mL for TNF-α) is subtracted from each reading. If any negative values result from background subtraction, the reading is reported as “*”, and is noted as not reliably detectable. In subsequent calculations and statistics, “*”, is treated as a zero. Second, all background subtracted values are multiplied by a single adjustment ratio to decrease experiment to experiment variability. The adjustment ratio is the area of the reference compound in the new experiment divided by the expected area of the reference compound based on the past 61 experiments (unadjusted readings). […]

Another experiment has as its system interferon (α) (IFN-α). Nature of the experiment: Cytokine induction in human cells: IFN-α secreted by PBMC into culture media (ELISA). Type of experiment: cell-based. Conditions: for Maximal Response IFN / Minimum Effective Concentration IFN / minimal effective concentration: human PBMC; for Maximal Response IFN / Minimum Effective Concentration IFN: median where tested in more than one experiment; for minimal effective concentration / Maximal Response (pg/mL) IFN: Table 10; for minimal effective concentration: lowest tested concentration inducing IFN-α over usually 20 pg/mL, median where more than one experiment, read-out: Minimum Effective Concentration (μM) IFN; for Maximal Response (pg/mL) IFN: maximal response in dose response curve, * = below experimental background level, median. Also on record: key to Maximal Response (pg/mL) IFN: If any negative values result from background subtraction, the reading is reported as “*”, and is noted as not reliably detectable.
Text: as §1, §2, §3, §4, §5, §6, §7, §8
IFN-α concentration is determined with a human multi-subtype calorimetric sandwich ELISA (Catalog Number 41105) from PBL Biomedical Laboratories, Piscataway, N.J. Results are expressed in pg/mL.
as §9
Analysis of the data has two steps. First, the greater of the mean DMSO (DMSO control wells) or the experimental background (usually 20 pg/mL for IFN-α and 40 pg/mL for TNF-α) is subtracted from each reading. If any negative values result from background subtraction, the reading is reported as “*”, and is noted as not reliably detectable. In subsequent calculations and statistics, “*”, is treated as a zero. Second, all background subtracted values are multiplied by a single adjustment ratio to decrease experiment to experiment variability. The adjustment ratio is the area of the reference compound in the new experiment divided by the expected area of the reference compound based on the past 61 experiments (unadjusted readings). […] The reference compound used is 2-[4-amino-2-ethoxymethyl-6,7,8,9-tetrahydro-α,α-dimethyl-1H-imidazo[4,5-c]quinolin-1-yl]ethanol hydrate (U.S. Pat. No. 5,352,784; Example 91) and the expected area is the sum of the median dose values from the past 61 experiments. […]
In general terms: An ELISA detects its analyte on a solid surface through an enzyme-linked reagent.

The mark [2] stands for this setting: Table 11, * = TNF below experimental background of 40 pg/mL.
Setting [3] is: Table 10, * = below experimental background level.

With `CC(C)(Cn1c(CO)nc2c(N)nc3cccnc3c21)NS(C)(=O)=O` [Example 144, N-[2-(4-Amino-2-hydroxymethyl-1H-imidazo[4,5-c][1,5]naphthyridin-1-yl)-1,1-dimethylethyl]methanesulfonamide], the “Maximal Response TNF” value in experiment [1] (Table 12, * = below the experimental background of 40 pg/mL) was 170 pg/mL. Besides, the “Maximal Response IFN” value in the experiment with interferon (α) (IFN-α) (Table 12) was determined as 1914 pg/mL.
As for `COCCc1nc2c(N)nc3ccccc3c2n1CCCNC(=O)c1ccccc1` [Analog 102], in experiment [1] (Table 11), the “Minimum Effective Concentration TNF” value came to 1.11 µM. Moreover, the “Maximal Response TNF” value in experiment [1] (setting [2]) stood at 3080 pg/mL. In the experiment on interferon (α) (IFN-α) (Table 11), the “Maximal Response IFN” value is 1504 pg/mL and the “Minimum Effective Concentration IFN” value worked out at 0.014 µM.
As to `CCCC(=O)NCCCCn1c(COCC)nc2c(N)nc3cc(-c4cccnc4)ccc3c21` [Analog 31], the values for the minimal effective concentration (in experiment [1] (Table 10); in the experiment on interferon (α) (IFN-α)) were 1.11 µM and 0.12 µM, respectively. Also, the “Maximal Response (pg/mL) TNF” value in experiment [1] (setting [3]) came out at 991 pg/mL. Further, the “Maximal Response (pg/mL) IFN” value in the experiment on interferon (α) (IFN-α) worked out at 965 pg/mL.
With `NCCCn1c(CCO)nc2c(N)nc3ccccc3c21` [Example 120], the “Minimum Effective Concentration TNF” value in experiment [1] (Table 11) is >30 µM. For the same compound, the “Maximal Response TNF” value in experiment [1] (setting [2]) was “*”. For the same compound, in the experiment on interferon (α) (IFN-α) (Table 11), the “Maximal Response IFN” value turned out to be 5636 pg/mL and the “Minimum Effective Concentration IFN” value turned out to be 3.33 µM.
For `CN(CCOCCn1c(CCO)nc2c(N)nc3ccccc3c21)C(=O)c1ccccc1` [Example 134], in that order: 30 µM, 315 pg/mL, 8361 pg/mL and 3.33 µM.
The matching figures for `COCCc1nc2c(N)nc3ccccc3c2n1CCCCNC(=O)N1CCOCC1` [Analog 57]: 0.04 µM, 3494 pg/mL, 8889 pg/mL and 0.014 µM.
For `CCc1nc2c(N)nc3ccccc3c2n1CC(C)(C)CNS(C)(=O)=O` [Analog 64], in that order: 3.33 µM, 1453 pg/mL, 1431 pg/mL and 0.12 µM.
For the compound `CCc1nc2c(N)nc3ccccc3c2n1CCCCNS(C)(=O)=O` [Analog 49], the “Minimum Effective Concentration TNF” value in experiment [1] (Table 11) was found to be 3.33 µM. The “Maximal Response TNF” value in experiment [1] (setting [2]) was determined as 679 pg/mL. In the experiment on interferon (α) (IFN-α) (Table 11), the “Maximal Response IFN” value is reported as 2712 pg/mL and the “Minimum Effective Concentration IFN” value was found to be 0.04 µM.
Regarding `CCCc1nc2c(N)nc3ccccc3c2n1CCCNS(C)(=O)=O` [Analog 60], in experiment [1] (Table 11), the “Minimum Effective Concentration TNF” value is 10 µM. For the same compound, the “Maximal Response TNF” value in experiment [1] (setting [2]) turned out to be 109 pg/mL. In the experiment on interferon (α) (IFN-α) (Table 11), the “Maximal Response IFN” value was 2148 pg/mL and the “Minimum Effective Concentration IFN” value is 1.11 µM.
Regarding `COCCc1nc2c(N)nc3ccccc3c2n1CCCCNC(=O)c1cnc2ccccc2c1` [Analog 115], the “Minimum Effective Concentration TNF” value in experiment [1] (Table 11) came out at 0.04 µM. In addition, in experiment [1] (setting [2]), the “Maximal Response TNF” value was determined as 9340 pg/mL. Moreover, in the experiment with interferon (α) (IFN-α) (Table 11), the “Maximal Response IFN” value was 7545 pg/mL and the “Minimum Effective Concentration IFN” value was 0.014 µM.
For `COCCc1nc2c(N)nc3ccccc3c2n1CCOCCN(C)S(C)(=O)=O` [Analog 80], in that order: 0.37 µM, 2191 pg/mL, 1630 pg/mL and 0.014 µM.
Regarding `Nc1nc2cc(-c3ccncc3)ccc2c2c1nc(CCO)n2CCCN1CCCC1=O` [Example 161], in experiment [1] (Table 10), the minimal effective concentration was >30 µM. The “Maximal Response (pg/mL) TNF” value in experiment [1] (setting [3]) was “*”. For the same compound, in the experiment on interferon (α) (IFN-α), the minimal effective concentration is given as >30 µM and the “Maximal Response (pg/mL) IFN” value is reported as “*”.
As for `COCCc1nc2c(N)nc3ccccc3c2n1CCCCNC(=O)c1cnc2ccccc2n1` [Analog 116], the “Minimum Effective Concentration TNF” value in experiment [1] (Table 11) was found to be 0.04 µM. Moreover, the “Maximal Response TNF” value in experiment [1] (setting [2]) was 7261 pg/mL. In addition, in the experiment with interferon (α) (IFN-α) (Table 11), the “Maximal Response IFN” value is listed as 1129 pg/mL and the “Minimum Effective Concentration IFN” value was found to be 0.014 µM.
The matching figures for `Cc1nc2c(N)nc3ccccc3c2n1CCCCNC(=O)N1CCOCC1` [Analog 53]: 10 µM, 1400 pg/mL, 1538 pg/mL and 0.12 µM.
In the case of `CCCNC(=O)NCCCCn1c(CO)nc2c(N)nc3cc(-c4cccnc4)ccc3c21` [Example 195], in experiment [1] (setting [3]), the “Maximal Response (pg/mL) TNF” value amounted to 81 pg/mL. In the experiment on interferon (α) (IFN-α), the “Maximal Response (pg/mL) IFN” value was found to be 5089 pg/mL.
As to `COCCc1nc2c(N)nc3ccccc3c2n1CCCCCS(C)(=O)=O` [Analog 76], in experiment [1] (Table 11), the “Minimum Effective Concentration TNF” value came to 1.11 µM. For the same compound, the “Maximal Response TNF” value in experiment [1] (setting [2]) came out at 6169 pg/mL. Moreover, in the experiment with interferon (α) (IFN-α) (Table 11), the “Maximal Response IFN” value was determined as 2695 pg/mL and the “Minimum Effective Concentration IFN” value was 0.014 µM.
As for `CC(C)(O)Cn1c(CO)nc2c(N)nc3cc(-c4cccnc4)ccc3c21` [Example 163], the results for the minimal effective concentration (in experiment [1] (Table 9); in experiment [1] (Table 10); in the experiment on interferon (α) (IFN-α)) were >30 µM, 10 µM and 0.37 µM, respectively. Besides, the “Maximal Response (pg/mL) TNF” value was “*” in experiment [1] (Table 9, * = below experimental background level of 40 pg/mL) and 51 pg/mL in experiment [1] (setting [3]).
As to `Cc1nc2c(N)nc3ccccc3c2n1CCCNC(=O)C(C)C` [Analog 123], the “Minimum Effective Concentration TNF” value in experiment [1] (Table 11) amounted to 10 µM. Moreover, the “Maximal Response TNF” value in experiment [1] (setting [2]) is 405 pg/mL. For the same compound, in the experiment on interferon (α) (IFN-α) (Table 11), the “Maximal Response IFN” value came out at 3011 pg/mL and the “Minimum Effective Concentration IFN” value was 1.11 µM.
Take `CCOCc1nc2c(N)nc3cc(-c4cccnc4)ccc3c2n1CCCCNC(=O)NC1CCCC1` [Analog 33]: the minimal effective concentration in experiment [1] (Table 10) stood at 1.11 µM. Moreover, the “Maximal Response (pg/mL) TNF” value in experiment [1] (setting [3]) is recorded as 1618 pg/mL. In the experiment with interferon (α) (IFN-α), the minimal effective concentration stood at 0.014 µM and the “Maximal Response (pg/mL) IFN” value is listed as 925 pg/mL.

Source of the values: patent US8846710B2, “Method of preferentially inducing the biosynthesis of interferon” (3M Innovative Properties Company, priority 2005, dated 2014).
